Literature values in patent US5948887A, “Polypeptides that include conformation-constraining groups which flank a protein--protein interaction site” (Virginia Commonwealth University, priority 1997, dated 1999).
Where a SMILES comes first, the peptide text is derived from it.

System: receptors of sweet tasting papillae
Conditions: comparison value

COC(=O)[C@H](Cc1ccccc1)NC(=O)[C@@H](N)CC(=O)O [aspartame] (H-Asp-Phe-OMe)
times sweeter than sugar: 160 times
